In US5656603A (Loyola University of Chicago, priority 1995, dated 1997):
Read-outs that look alike come from different tables or passages of the source.

Tests used:
[1] = target: T1, dipeptidyl-peptidase IV (EC 3.4.14.5) (Bos taurus, UniProt P81425); assay: Specificity of apstatin: dipeptidyl-peptidase IV; type: biochemical; settings: detergent extract of bovine lung; Gly-Pro-β-NA, pH 6.8, FLUO
T1 construct: Unless otherwise indicated, the source of each enzyme activity was a detergent extract of bovine lung; from tissue; host or cells: detergent extract of bovine lung
Description: (§1) Specificity of Apstatin--Apstatin was assayed for its ability to inhibit several other peptidases. […] Unless otherwise indicated, the source of each enzyme activity was a detergent extract of bovine lung prepared as described in (12-13). Activities were determined by a modification of the fluorescent assay described above (indicated by "FLUO") or by HPLC separation and quantitation of reaction products using the method described in (12) (method "HPLC-1") or the method described below (method "HPLC-2"). […]

[2] = target: dipeptidyl-peptidase I-like activity; assay: Specificity of apstatin: dipeptidyl-peptidase I-like activity; type: biochemical; settings: detergent extract of bovine lung; Gly-Phe-β-NA, pH 6.5, HPLC-2
Description: as §1

[3] = target: T2, aminopeptidase M (EC 3.4.11.2) (Sus scrofa, UniProt P15145); assay: Specificity of apstatin: aminopeptidase M; type: biochemical; settings: purified, porcine kidney; Ala-β-NA, pH 6.8, FLUO
T2 construct: Purified porcine kidney prolidase and purified porcine kidney aminopeptidase M was obtained from Sigma; purchased Sigma (St. Louis, Mo.); host or cells: porcine kidney
T2 sequence (P15145 1-963): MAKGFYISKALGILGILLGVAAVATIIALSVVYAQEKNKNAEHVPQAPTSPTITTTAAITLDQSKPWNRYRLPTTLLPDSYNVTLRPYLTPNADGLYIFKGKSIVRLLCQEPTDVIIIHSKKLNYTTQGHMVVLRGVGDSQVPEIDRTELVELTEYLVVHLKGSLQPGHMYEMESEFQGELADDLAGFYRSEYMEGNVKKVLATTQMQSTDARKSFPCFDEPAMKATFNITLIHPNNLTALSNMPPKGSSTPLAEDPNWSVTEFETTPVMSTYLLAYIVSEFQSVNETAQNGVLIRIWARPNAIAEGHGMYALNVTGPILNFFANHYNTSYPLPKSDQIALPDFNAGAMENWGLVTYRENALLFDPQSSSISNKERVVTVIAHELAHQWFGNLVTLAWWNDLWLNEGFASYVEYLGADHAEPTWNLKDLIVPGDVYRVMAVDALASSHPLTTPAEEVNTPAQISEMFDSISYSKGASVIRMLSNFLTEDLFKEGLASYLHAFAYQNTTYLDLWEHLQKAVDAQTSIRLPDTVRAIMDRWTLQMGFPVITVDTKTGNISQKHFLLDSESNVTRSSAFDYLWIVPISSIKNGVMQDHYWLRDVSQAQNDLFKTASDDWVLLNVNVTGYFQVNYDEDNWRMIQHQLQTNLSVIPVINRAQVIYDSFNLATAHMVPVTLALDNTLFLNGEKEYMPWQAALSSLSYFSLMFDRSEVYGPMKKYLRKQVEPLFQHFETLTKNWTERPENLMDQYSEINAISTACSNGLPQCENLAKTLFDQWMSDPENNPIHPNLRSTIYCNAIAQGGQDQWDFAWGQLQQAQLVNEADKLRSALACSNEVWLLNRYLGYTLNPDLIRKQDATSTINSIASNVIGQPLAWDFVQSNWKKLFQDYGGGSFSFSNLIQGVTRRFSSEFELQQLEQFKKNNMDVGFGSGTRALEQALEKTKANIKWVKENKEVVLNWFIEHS
Description: as §1

[4] = test system: blood pressure response to Bk; settings: rat, cited from earlier work

T1 sequence (P81425 whole entry): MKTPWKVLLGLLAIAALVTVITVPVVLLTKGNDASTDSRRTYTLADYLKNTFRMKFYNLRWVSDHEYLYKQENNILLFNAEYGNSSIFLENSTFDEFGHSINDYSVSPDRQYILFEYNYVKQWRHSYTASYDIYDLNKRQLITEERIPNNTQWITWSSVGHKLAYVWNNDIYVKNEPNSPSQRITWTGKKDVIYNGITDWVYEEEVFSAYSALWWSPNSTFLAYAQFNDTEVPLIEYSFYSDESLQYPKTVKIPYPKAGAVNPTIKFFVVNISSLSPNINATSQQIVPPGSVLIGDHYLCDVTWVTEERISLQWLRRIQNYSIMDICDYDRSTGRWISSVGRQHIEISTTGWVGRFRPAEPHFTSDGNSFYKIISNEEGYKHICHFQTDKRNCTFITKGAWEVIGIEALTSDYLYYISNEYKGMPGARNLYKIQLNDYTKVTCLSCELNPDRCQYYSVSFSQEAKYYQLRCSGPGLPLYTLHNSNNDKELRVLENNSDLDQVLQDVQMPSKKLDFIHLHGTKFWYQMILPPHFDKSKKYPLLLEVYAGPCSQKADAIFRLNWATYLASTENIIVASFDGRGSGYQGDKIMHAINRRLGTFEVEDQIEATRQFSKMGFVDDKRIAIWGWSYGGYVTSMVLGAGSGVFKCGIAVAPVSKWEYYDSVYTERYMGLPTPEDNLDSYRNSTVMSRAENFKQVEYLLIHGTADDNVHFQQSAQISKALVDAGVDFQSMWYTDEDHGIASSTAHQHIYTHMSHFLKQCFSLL

## C[C@H](NC(=O)[C@@H]1CCCN1C(=O)[C@@H]1CCCN1C(=O)[C@@H](O)[C@H](N)Cc1ccccc1)C(N)=O [apstatin, N-[(2S, 3R)-3-amino-2-hydroxy-4-phenylbutanoyl]-L-prolyl-L-prolyl-Lalaninamide]
[1]
  IC50: 1100 µM
[2]
  IC50: > 800 µM
[3]
  IC50: 600 µM
[4]; apstatin alone
  effect on blood pressure decrease caused by intravenous administration of Bk: significantly potentiate the magnitude as well as the duration
[4]; apstatin plus lisinopril versus lisinopril alone
  effect on blood pressure decrease caused by intravenous administration of Bk: more effective in this regard than lisinopril alone
